Measured values from US8187878B2, “Methods for increasing definitive endoderm differentiation of pluripotent human embryonic stem cells with PI-3 kinase inhibitors” (University of Georgia Research Foundation, Inc., priority 2004, dated 2012).

What was measured:
BG01 cells [1] = experiment: Sox17 Q-PCR, GSK3 inhibitor on LY 294002 induced DE formation; assay type: cell-based, human; details: 60 μM LY 294002; BIO 0.1-5 μM, MeBIO 1-5 μM; 3-4 days
Protocol: BG01 cells were passaged on matrigel using the collagenase/trypsin method as described above and were plated on matrigel-coated chamber slides in CM. After approximately 24 hours, the medium was changed, and the cells were treated with 60 μM LY 294002, BIO, meBIO, or DMSO for approximately 3-4 days. The inhibitor BIO (Dr. Ali Brivanlou) was diluted in DMSO and was used at a concentration of approximately 0.1-5 μM. MeBIO (Dr. Ali Brivanlou) was also diluted in DMSO and used at a concentration of approximately 1-5 μM. Assays were performed in triplicate and are shown as +/−SEM.
Cells were grown in these conditions for approximately 3-4 days with a medium change every 24 hours. Cells were harvested using the collagenase/trypsin method for Q-PCR as described above

BG01 cell line = experiment: SOX17 and AFP immunofluorescence staining; assay type: cell-based, human
Protocol: Cells to be immunostained were grown on chamber slides, and were rinsed once with 1×PBS and fixed for 10 minutes in 4% PFA/4% sucrose in PBS pH 7.4 at room temperature. They were then rinsed 3× in 1×PBS and blocked in 3% goat serum with 0.1% Triton-X100 in PBS for 1 hour at room temperature. Primary antibodies were diluted in 3% goat serum in PBS and this solution was applied overnight at 4° C. The primary antibodies used were rabbit anti-human AFP (Zymed), used at a 1:50 dilution, and rat anti-human SOX17 (obtained from Cythera, Inc.), used at 1:1000 dilution. Cells were washed for 1 hour with 3 changes of 1×PBS. Secondary antibodies were applied for 2 hours at room temperature. Secondary antibodies used were goat anti-rabbit Alexa Fluor 488 and goat anti-rat Alexa Fluor 594 (Molecular Probes), both at a 1:1000 dilution in 3% goat serum in 1×PBS. Cells were washed for 1 hour with 3 changes of 1×PBS. The chambers were removed and slides were mounted in VectaShield mounting medium with DAPI (Vector).

hESCs = experiment: Kidney capsule assay of LY 294002 treated hESCs; assay type: in vivo, SCID-beige mice; details: relative to LY 294002 treated cells that were not implanted
Protocol: Untreated hESCs or hESCs treated for 4 days with 60 μM LY 294002 were collagenase treated to generate cell aggregates (˜50 cells/aggregate), washed in warm media, then gently resuspended in 2 ml DMEM/F12, 10% FCS and left overnight at 37° C., 10% CO2 to facilitate further aggregation. Approximately 2.5×10^6 cells were injected into the kidney capsule of 5 week old male SCID-beige mice. 6 weeks after transplantation, mice were sacrificed, and the kidneys were removed and fixed in 4% paraformaldehyde. Following fixation, kidneys were embedded in paraffin wax, sectioned and mounted onto glass slides in preparation for H&E and immunostaining. After mounting, slides underwent deparaffinization, rehydration and heat induced epitope retrieval with Trilogy (Cell Marque, CMX-833). Slides were stained using the alkaline phosphatase Vectastain ABC System (Vector Labs, AK-5002) and Vector Red substrate (Vector Labs, SK-5100). […] For fluorescence immunocytochemistry the following secondary antibodies were used; Alexa Fluor 488 goat anti-mouse IgG (Molecular Probes, A11001), Alexa Fluor 594 goat anti-rabbit IgG (Molecular Probes, A11012).

hESC = experiment: Sox17 Q-PCR, MEF-CM and LY 294002 with signaling inhibitors; assay type: cell-based, human; details: proteins approximately 500 ng/ml, SB-43152 approximately 10 μM, SU-5402 approximately 5 μM
Protocol: Sox 17 expression was evaluated by Q-PCR under culture conditions competent to support hESC-DE formation (MEF-CM and LY 294002) in the presence or absence of Chordin (approximately 500 ng/ml), Follistatin (approximately 500 ng/ml), Lefty-A (approximately 500 ng/ml), Noggin (approximately 500 ng/ml), SB-43152 (approximately 10 μM), and SU-5402 (approximately 5 μM). Assays were performed in triplicate and are shown as +/−SEM.

BG01 cells [2] = experiment: Sox17 Q-PCR, LY 294002 with conditioned medium or TGFβ members; assay type: cell-based, human; details: UCM, approximately 4 days
Protocol: BG01 cells were passaged from feeders using the collagenase/trypsin method and were plated on matrigel coated dishes at 1×10^5 cells/35 mm dish in unconditioned hES medium (UCM). After approximately 24 hours, the media was replaced with fresh hES medium or MEF-CM, along with LY 294002, Activin A, or Nodal as shown in FIG. 8A. LY 294002 was used at a concentration of approximately 60 μM; Activin A was used at a concentration of approximately 100 ng/ml; and Nodal was used at a concentration of approximately 1 μg/ml. Cells were treated for approximately 4 days, with a change in medium every 24 hours. Cells were harvested using the collagenase/trypsin method for Q-PCR analysis. Sox-17 Q-PCR was performed as described in Example 3.

Molecule: O=C1Nc2cc(Br)ccc2/C1=C1/Nc2ccccc2/C1=N\O [BIO]
- LY 294002 induced DE formation as determined by Sox17 expression (BG01 cells [1]): blocked

Molecule: O=c1cc(N2CCOCC2)oc2c(-c3ccccc3)cccc12 [LY 294002]
- cell population expressing SOX17 (BG01 cell line; counting 500 cells): 60%
- cells expressing SOX17 (BG01 cell line; of 500 cells counted): 296 cells
- increase in FABP1 mRNA (hESCs): 1000 fold
- increase in albumin mRNA (hESCs): 4500 fold

Molecule: NC(=O)c1ccc(-c2nc(-c3ccccn3)c(-c3ccc4c(c3)OCO4)[nH]2)cc1 [SB-43152]
- LY 294002, MEF-CM dependent Sox17 expression (hESC): suppressed

Molecule: MeBIO
- LY 294002 induced DE formation as determined by Sox17 expression (BG01 cells [1]): not

B1: Activin A: member of the TGFβ family (protein, UniProt P08476 311-426, looked up)
Inhibin beta A chain: GLECDGKVNICCKKQFFVSFKDIGWNDWIIAPSGYHANYCEGECPSHIAGTSGSSLSFHSTVINHYRMRGHSPFANLKSCCVPTKLRPMSMLYYDDGQNIIKKDIQNMIVEECGCS
- Sox17 expression (fold-increase over untreated) (BG01 cells [2]; LY 294002 approximately 60 μM plus Activin A approximately 100 ng/ml): Significant Sox17 expression

B2: Nodal: member of the TGFβ family (protein, UniProt Q96S42 238-347, looked up)
Nodal homolog: HHLPDRSQLCRKVKFQVDFNLIGWGSWIIYPKQYNAYRCEGECPNPVGEEFHPTNHAYIQSLLKRYQPHRVPSTCCAPVKTKPLSMLYVDNGRVLLDHHKDMIVEECGCL
- Sox17 expression (fold-increase over untreated) (BG01 cells [2]; LY 294002 approximately 60 μM plus Nodal approximately 1 μg/ml): Significant Sox17 expression

B3: Follistatin: inhibitor of Activin signaling (protein, UniProt P19883 30-344, looked up)
Follistatin: GNCWLRQAKNGRCQVLYKTELSKEECCSTGRLSTSWTEEDVNDNTLFKWMIFNGGAPNCIPCKETCENVDCGPGKKCRMNKKNKPRCVCAPDCSNITWKGPVCGLDGKTYRNECALLKARCKEQPELEVQYQGRCKKTCRDVFCPGSSTCVVDQTNNAYCVTCNRICPEPASSEQYLCGNDGVTYSSACHLRKATCLLGRSIGLAYEGKCIKAKSCEDIQCTGGKKCLWDFKVGRGRCSLCDELCPDSKSDEPVCASDNATYASECAMKEAACSSGVLLEVKHSGSCNSISEDTEEEEEDEDQDYSFPISSILEW
- LY 294002, MEF-CM dependent Sox17 expression (hESC): suppressed
